This is an account of results in the supplement of paper PMC10307832.

Test in all cases: relative viability (nuclei count vs DMSO), 5 days (fraction); higher = more cells survive
Compound in test [1]: C#Cc1cccc(Nc2ncnc3cc(OCCOC)c(OCCOC)cc23)c1 [Erlotinib] + CCNC(=O)c1noc(-c2cc(C(C)C)c(O)cc2O)c1-c1ccc(CN2CCOCC2)cc1 [Luminespib] (partner 0.01 µM)
The procedure, abridged:
(§1)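 Values are medians from duplicate plates. Each reflects relative viability, defined as the nuclei count of treated wells over that of vehicle wells. Lung cancer cell lines in 1536-well plates were pin-tool dosed one day after seeding with one drug alone or with a fixed anchor-drug dose plus five library-drug doses (not always all listed) in √10 steps, then fixed, stained and imaged at 4× after 5 days.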

Compound in test [2]: C#Cc1cccc(Nc2ncnc3cc(OCCOC)c(OCCOC)cc23)c1 [Erlotinib] + CC(=O)Nc1cccc(-n2c(=O)n(C3CC3)c(=O)c3c(Nc4ccc(I)cc4F)n(C)c(=O)c(C)c32)c1 [Trametinib] (partner 0.02 µM)
The procedure, abridged: as §1

Compound in test [3]: C#Cc1cccc(Nc2ncnc3cc(OCCOC)c(OCCOC)cc23)c1 [Erlotinib] + Nc1ncn([C@H]2C[C@H](O)[C@@H](CO)O2)c(=O)n1 [Decitabine] (partner 2 µM)
The procedure, abridged:
as §1

Compound in test [4]: C#Cc1cccc(Nc2ncnc3cc(OCCOC)c(OCCOC)cc23)c1 [Erlotinib] + COc1cccc2cc(-c3nc([C@H]4CC[C@H](C(=O)O)CC4)n4ncnc(N)c34)[nH]c12 [OSI-027] (partner 0.5 µM)
An outline of the steps: as §1

Compound in test [5]: O=C(Nc1c[nH]nc1-c1nc2ccc(CN3CCOCC3)cc2[nH]1)NC1CC1 [AT9283] + Cc1cc(Nc2cc(N3CCN(C)CC3)nc(Sc3ccc(NC(=O)C4CC4)cc3)n2)n[nH]1 [Tozasertib] (partner 0.1 µM)
The procedure, abridged: as §1

NCI-H2170: the relative viability in test [1] (first compound 0.02 µM) came to 0.685; in test [1] (first compound 0.2 µM), 0.413; in test [1] (first compound 0.6325 µM), 0.743; in test [1] (first compound 2 µM) it was 0.398; in test [2] (first compound 0.02 µM), 0.884; in test [2] (first compound 0.2 µM), 0.924. Moreover, the relative viability in test [2] (first compound 0.6325 µM) stood at 0.977; in test [2] (first compound 2 µM) it was 0.773; in test [3] (first compound 0.02 µM), 0.542; in test [3] (first compound 0.2 µM), 0.492; in test [3] (first compound 0.6325 µM), 0.505; in test [3] (first compound 2 µM) it was 0.419. For the same cell line, the relative viability in test [4] (first compound 0.02 µM) is 0.687; in test [4] (first compound 0.2 µM), 0.748; in test [4] (first compound 0.6325 µM), 0.566; in test [4] (first compound 2 µM), 0.403; in test [5] (first compound 0.003 µM), 0.748; in test [5] (first compound 0.03 µM), 0.276. Moreover, the relative viability in test [5] (first compound 0.09487 µM) was found to be 0.164; in test [5] (first compound 0.3 µM), 0.157.

Consider NCI-H2342, for which the relative viability in test [1] (first compound 0.02 µM) was found to be 0.731; in test [1] (first compound 0.2 µM), 0.609; in test [1] (first compound 0.6325 µM) it was 0.573; in test [1] (first compound 2 µM), 0.739; in test [2] (first compound 0.02 µM), 1.14; in test [2] (first compound 0.2 µM), 0.814. In addition, the relative viability was 0.803 in test [2] (first compound 0.6325 µM); 0.74 in test [2] (first compound 2 µM); 0.78 in test [3] (first compound 0.02 µM); 0.701 in test [3] (first compound 0.6325 µM); 0.683 in test [3] (first compound 2 µM); 0.596 in test [4] (first compound 0.02 µM). In addition, the relative viability is 0.635 in test [4] (first compound 0.2 µM); 0.556 in test [4] (first compound 0.6325 µM); 0.55 in test [4] (first compound 2 µM); 0.555 in test [5] (first compound 0.003 µM); 0.453 in test [5] (first compound 0.03 µM); 0.403 in test [5] (first compound 0.09487 µM). Further, the relative viability in test [5] (first compound 0.3 µM) was 0.344.

As for NCI-H2347, the relative viability in test [1] (first compound 0.02 µM) is 1.25; in test [1] (first compound 0.2 µM), 0.557; in test [1] (first compound 0.6325 µM) it was 0.441; in test [1] (first compound 2 µM) it was 0.902; in test [2] (first compound 0.02 µM) it was 0.268; in test [2] (first compound 0.2 µM), 0.482. Further, the relative viability in test [2] (first compound 0.6325 µM) stood at 0.275; in test [2] (first compound 2 µM), 0.285; in test [3] (first compound 0.02 µM), 0.633; in test [3] (first compound 0.2 µM), 0.642; in test [3] (first compound 0.6325 µM), 0.589; in test [3] (first compound 2 µM), 0.576. The relative viability in test [4] (first compound 0.02 µM) turned out to be 0.345; in test [4] (first compound 0.2 µM), 0.444; in test [4] (first compound 0.6325 µM), 0.415; in test [4] (first compound 2 µM), 0.272; in test [5] (first compound 0.003 µM), 0.517; in test [5] (first compound 0.03 µM), 0.456. Moreover, the relative viability in test [5] (first compound 0.09487 µM) came to 0.336; in test [5] (first compound 0.3 µM), 0.326.

Consider NCI-H2405, for which the relative viability in test [1] (first compound 0.02 µM) is 0.6; in test [1] (first compound 0.2 µM) it was 0.655; in test [1] (first compound 0.6325 µM), 0.598; in test [1] (first compound 2 µM) it was 0.755; in test [2] (first compound 0.02 µM), 0.543; in test [2] (first compound 0.2 µM), 0.574. For the same cell line, the relative viability in test [2] (first compound 0.6325 µM) turned out to be 0.613; in test [2] (first compound 2 µM), 0.55; in test [3] (first compound 0.2 µM), 0.706; in test [3] (first compound 0.6325 µM), 0.647; in test [3] (first compound 2 µM), 0.629; in test [4] (first compound 0.02 µM), 0.701. The relative viability in test [4] (first compound 0.6325 µM) came out at 0.614; in test [4] (first compound 2 µM) it was 0.591; in test [5] (first compound 0.003 µM), 0.689; in test [5] (first compound 0.03 µM), 0.418; in test [5] (first compound 0.09487 µM), 0.272; in test [5] (first compound 0.3 µM), 0.261.

For NCI-H3122, the relative viability in test [1] (first compound 0.02 µM) came to 0.0866; in test [1] (first compound 0.2 µM), 0.089; in test [1] (first compound 0.6325 µM), 0.0884; in test [1] (first compound 2 µM), 0.107; in test [2] (first compound 0.02 µM), 0.254; in test [2] (first compound 0.2 µM) it was 0.271. The relative viability was 0.22 in test [2] (first compound 0.6325 µM); 0.246 in test [2] (first compound 2 µM); 0.533 in test [3] (first compound 0.02 µM); 0.402 in test [3] (first compound 0.2 µM); 0.443 in test [3] (first compound 0.6325 µM); 0.386 in test [3] (first compound 2 µM). Moreover, the relative viability was found to be 0.946 in test [4] (first compound 0.02 µM); 1.06 in test [4] (first compound 0.2 µM); 0.998 in test [4] (first compound 0.6325 µM); 0.641 in test [4] (first compound 2 µM); 0.338 in test [5] (first compound 0.003 µM); 0.348 in test [5] (first compound 0.03 µM). Moreover, the relative viability in test [5] (first compound 0.09487 µM) turned out to be 0.319; in test [5] (first compound 0.3 µM), 0.113.

Regarding PC-3 [JPC-3], the relative viability came to 0.64 in test [1] (first compound 0.02 µM); 0.363 in test [1] (first compound 0.2 µM); 0.406 in test [1] (first compound 0.6325 µM); 0.306 in test [1] (first compound 2 µM); 0.557 in test [2] (first compound 0.02 µM); 0.427 in test [2] (first compound 0.2 µM). Also, the relative viability was found to be 0.337 in test [2] (first compound 0.6325 µM); 0.332 in test [2] (first compound 2 µM); 0.842 in test [3] (first compound 0.02 µM); 0.446 in test [3] (first compound 0.2 µM); 0.429 in test [3] (first compound 0.6325 µM); 0.431 in test [3] (first compound 2 µM). In addition, the relative viability in test [4] (first compound 0.02 µM) came to 0.735; in test [4] (first compound 0.2 µM) it was 0.334; in test [4] (first compound 0.6325 µM) it was 0.178; in test [4] (first compound 2 µM), 0.215; in test [5] (first compound 0.003 µM), 0.924; in test [5] (first compound 0.03 µM), 0.814. The results for the relative viability in test [5] (first compound 0.09487 µM) and in test [5] (first compound 0.3 µM) were 0.492 and 0.58, respectively.
